The values that follow come from article PMC6171423, “Benzofuran–appended 4-aminoquinazoline hybrids as epidermal growth factor receptor tyrosine kinase inhibitors: synthesis, biological evaluation and molecular docking studies” (Journal of Enzyme Inhibition and Medicinal Chemistry, 2018).

The structures appear in SMILES notation. Where two headings read alike, the source gives them in different places. Some results are limits rather than exact numbers.

As a reminder, the IC50 is the concentration that gives 50% inhibition.

Data set [1] relates to human lung cancer (A549) cells. Put plainly: cells. To be noted: A549, 48 h, read-out: Cancer cells LC50 A549.
Protocol: (§5) The cytotoxic activities of the compounds were screened against the C3A/HepG2 human liver cells, human colorectal tumor (Caco-2) cells, the human lung carcinoma (A549) and the cervical cancer (HeLa) cells. The lethal concentration was determined using the 3–(4,5-dimethylthiazol)-2,5-diphenyl tetrazolium bromide (MTT) assay previously developed by Mosmann[20]. The cells were maintained in Dubelsco minimal essential medium (DMEM, Highveld Biological, South Africa) supplemented with 10% fetal calf serum (Adcock-Ingram, Midrand, South Africa) and sodium pyruvate for C3A liver cells. Cell suspensions were prepared from confluent monolayer cultures and plated at a density of 0.1 × 10^6 cells into each well of 96-well microtitre plates. For cell attachment, plates were incubated for 24 h at 37 °C in a 5% CO2 incubator prior to the exposure. The compounds were dissolved in DMSO (5 mg/mL) and appropriate dilutions were prepared, added to the wells and incubated for 48 h. Doxorubicin hydrochloride (Pfizer Laboratories, Sandton, South Africa) was used as a positive control while DMSO was the negative control. After incubation for 48 h, the wells were rinsed with 150 µL of phosphate buffered saline PBS (Sigma-Aldrich, GmBH, Schnelldorf, Germany) and 200 µL of fresh medium was dispensed into the wells. MTT was dissolved in PBS (30 µL) then added to each well and the contents were incubated for 4 h at 37 °C. The medium was removed and MTT formazan crystals were dissolved in 50 µL DMSO. The amount of MTT reduction was measured immediately by detecting the absorbance using a BioTek microplate reader (BioTek Synergy, Analytical and Diagnostic Products, Johannesburg, South Africa) at a wavelength of 570 nm. Each dilution of the test sample was assayed in quadruplicate and the experiments were repeated three times. The percentage of cell viability and the LC50 values for each compound tested were calculated as described before[10].
The subject of data set [2] is colorectal adenocarcinoma (Caco-2) cells. Put plainly: cells. The conditions noted are these: Homo sapiens, Caco-2, 48 h, read-out: Cancer cells LC50 Caco-2.
Protocol: as §5
In data set [3] the test system is hepatocellular carcinoma (C3A; HepG2/C3A) cells. The data set can be described thus: cells. To be noted: Homo sapiens, 48 h.
Protocol: as §5
The test system of data set [4] is cervical cancer (HeLa) cells. The data set can be described thus: cells. The conditions noted are these: Homo sapiens, 48 h, read-out: Cancer cells LC50 HeLa.
Protocol: as §5
In another data set the target is human EGFR (EGFR-TK) (Homo sapiens, UniProt P00533). Put plainly: Inhibition of EGFR-TK (ELISA). For orientation: ELISA stands for enzyme-linked immunosorbent assay.
Data set [5] relates to hepatocellular carcinoma (C3A; HepG2/C3A) cells. To be noted: human, 48 h.
Protocol: as §5
In a further data set the test system is C3A cells. Put plainly: Annexin V/PI apoptosis assay by flow cytometry, C3A. It is filed as cell-based, human. To be noted: 5 and 12.5 µM, 24 h. As for the experimental part: (§1) Apoptotic cells were quantified using flow cytometry. The C3A or Caco-2 cells were cultured in 24 well plates and each was then treated with compound 10d or 10j at concentrations 5, 12.5 and 25 µM against doxorubicin hydrochloride (0.20 µM) as a reference standard, respectively. After the cells were incubated for 24 h, both treated and untreated cells were harvested, washed two times with ice PBS and then adjusted at a density of 1 x 10^6 cells/sample. Cells were harvested and transferred into plastic flow tubes (BD Biosciences, South Africa). The cells were, in turn, stained with Annexin-V-FUOS staining kit (Roche, Mannheim, Germany) according to the manufacturer’s instructions. The cells were analyzed using Becton, Dickinson and Company FACS Accuri flow cytometer.
(§2) We selected compounds 10d and 10j to evaluate whether they induce apoptosis in the C3A and Caco-2 cell lines against doxorubicin hydrochloride as a reference standard, respectively. The population of apoptotic cells was determined by means of Annexin-V and propium iodide (PI) double staining by flow cytometry, which is a useful tool for evaluation of molecular and morphological events that take place during cell death and cell proliferation. […]
A general note: A flow cytometer gives signals particle by particle.

For data set [6], the system named is Human Caspase-3 (Asp175) activity in C3A cells. The data set can be described thus: Caspase-3 colorimetric assay, C3A. The class given is cell-based. The conditions noted are these: 24 h, Gefitinib as reference. As for the experimental part: (§3) Caspase-3 activity was detected by means of Caspase-3 Colorimetric Assay Kit (Abcam, Cambridge, MA, USA). The cells were cultured in 24 well plates and treated for 24 h. The cells were then washed with PBS buffer and lysed on ice. The experiments were carried out according to the manufacturer’s instructions. Optical density was measured at absorbance of 450 nm using the BioTek microplate reader. The concentration of active Caspase-3 (Asp 175) were measured in duplicates and interpolated from the active caspase-3 (Asp 175) standard curve and corrected for sample dilution.
(§4) A major biochemical feature of apoptosis is the activation of caspases (caspase-2, -3, -6, -7, -8, -9, and -10), which play a central role in the morphological changes associated with apoptosis. Activation of caspase-3, for example, is critically important for the induction of apoptotic pathways. Consequently, we evaluated compounds 10d and 10j for potential to induce caspase-3 activation in C3A and Caco-2 cells using Gefitinib as a reference standard (Figure 4).

Another data set has as its system Caco-2 cells. The data set can be described thus: Annexin V/PI apoptosis assay by flow cytometry, Caco-2. It is filed as cell-based, human. The conditions noted are these: 5 and 12.5 µM, 24 h. On the procedure:
as §1, §2

For data set [7], the system named is Human Caspase-3 (Asp175) activity in Caco-2 cells. Put plainly: Caspase-3 colorimetric assay, Caco-2. The class given is cell-based. The conditions noted are these: 24 h, Gefitinib as reference. On the procedure: as §3, §4
Where [8] appears, read: read-out: Cancer cells LC50 C3A.
The mark [9] stands for this setting: read-out: IC50 against EGFR-TK, ELISA, purified EGFR.

Chain of human EGFR (EGFR-TK) (P00533 25-1210): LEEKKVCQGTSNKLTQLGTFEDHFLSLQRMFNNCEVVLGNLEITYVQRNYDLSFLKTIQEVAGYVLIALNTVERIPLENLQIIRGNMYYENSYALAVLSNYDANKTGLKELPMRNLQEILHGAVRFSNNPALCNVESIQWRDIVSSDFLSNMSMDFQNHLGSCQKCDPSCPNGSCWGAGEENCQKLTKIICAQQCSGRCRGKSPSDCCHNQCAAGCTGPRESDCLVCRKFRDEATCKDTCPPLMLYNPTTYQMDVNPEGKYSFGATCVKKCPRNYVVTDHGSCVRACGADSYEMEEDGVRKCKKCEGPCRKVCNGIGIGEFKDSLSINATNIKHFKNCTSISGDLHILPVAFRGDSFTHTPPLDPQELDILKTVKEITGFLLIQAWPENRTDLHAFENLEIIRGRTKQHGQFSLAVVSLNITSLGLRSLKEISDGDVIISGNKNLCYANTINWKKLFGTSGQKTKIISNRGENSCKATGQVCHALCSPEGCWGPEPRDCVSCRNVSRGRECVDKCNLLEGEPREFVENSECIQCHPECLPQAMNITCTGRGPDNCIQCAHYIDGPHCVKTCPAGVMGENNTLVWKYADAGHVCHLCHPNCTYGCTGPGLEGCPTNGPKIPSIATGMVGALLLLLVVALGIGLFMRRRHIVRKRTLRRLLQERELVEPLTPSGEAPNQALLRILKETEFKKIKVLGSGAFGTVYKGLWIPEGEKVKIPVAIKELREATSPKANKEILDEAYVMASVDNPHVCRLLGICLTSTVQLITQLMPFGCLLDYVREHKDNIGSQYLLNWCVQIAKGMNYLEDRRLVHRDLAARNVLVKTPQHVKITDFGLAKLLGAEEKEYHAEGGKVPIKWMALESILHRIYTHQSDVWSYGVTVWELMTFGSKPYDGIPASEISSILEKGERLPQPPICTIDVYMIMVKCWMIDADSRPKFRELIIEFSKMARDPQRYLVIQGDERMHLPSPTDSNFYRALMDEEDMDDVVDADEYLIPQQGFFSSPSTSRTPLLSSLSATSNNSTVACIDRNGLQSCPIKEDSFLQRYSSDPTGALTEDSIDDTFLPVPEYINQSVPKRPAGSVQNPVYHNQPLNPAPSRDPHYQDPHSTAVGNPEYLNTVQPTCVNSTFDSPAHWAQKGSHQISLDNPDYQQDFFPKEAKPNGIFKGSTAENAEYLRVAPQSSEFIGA

In the case of `Fc1ccc(-c2nc(Nc3cc(Br)cc4cc(-c5cccc(F)c5)oc34)c3cc(Br)ccc3n2)cc1` [Compound 10b, 6-Bromo-N-(5-bromo-2–(3-fluorophenyl)benzofuran-7-yl)-2–(4-fluorophenyl)quinazolin-4-amine], the CC50 was determined as 54.3 ± 0.19 µM in data set [1], 83.9 ± 0.07 µM in data set [2], 90.1 ± 0.02 µM in data set [3] (setting [8]) and 47 ± 0.38 µM in [4]. The IC50 at human EGFR (EGFR-TK) (setting [9]) turned out to be 0.1225 ± 0.0005 µM.
For the compound `Fc1ccc(-c2cc3cc(Br)cc(Nc4nc(-c5ccc(Cl)cc5)nc5ccc(Br)cc45)c3o2)cc1` [Compound 10h, 6-Bromo-N-(5-bromo-2–(4-fluorophenyl)benzofuran-7-yl)-2–(4-chlorophenyl)quinazolin-4-amine], the CC50 in data set [1] was 74.1 ± 0.21 µM; in data set [2], 49.1 ± 0.01 µM; in data set [3] (setting [8]), over 100 µM; in [4], 28.6 ± 1.12 µM. In addition, the IC50 on human EGFR (EGFR-TK) (setting [9]) was 0.1257 ± 0.00052 µM.
In the case of `Fc1ccc(-c2nc(Nc3cc(Br)cc4cc(-c5ccc(F)cc5)oc34)c3cc(Br)ccc3n2)cc1` [Compound 10c, 6-Bromo-N-(5-bromo-2–(4-fluorophenyl)benzofuran-7-yl)-2–(4-fluorophenyl)quinazolin-4-amine], the CC50 in [1] is 52.6 ± 0.2 µM; in data set [2], 98.8 ± 0.02 µM; in data set [3] (setting [8]), over 100 µM; in data set [4], 11.4 ± 0.56 µM. Further, at human EGFR (EGFR-TK), it took 0.0522 ± 0.00018 µM to reach half-maximal inhibition (IC50).
Regarding `Clc1ccc(-c2nc(Nc3cc(Br)cc4cc(-c5cccc(Cl)c5)oc34)c3cc(Br)ccc3n2)cc1` [Compound 10i, 6-Bromo-N-(5-bromo-2–(3-chlorophenyl)benzofuran-7-yl)-2–(4-chlorophenyl)quinazolin-4-amine], the CC50 is 86.6 ± 0.16 µM in [1], 33.5 ± 0.1 µM in data set [2], 68.2 ± 0.02 µM in [3] (setting [8]) and 75.1 ± 5.25 µM in data set [4]. On human EGFR (EGFR-TK) (setting [9]), the IC50 turned out to be 0.0902 ± 0.00034 µM.
As to `COc1cc2ncnc(Nc3ccc(F)c(Cl)c3)c2cc1OCCCN1CCOCC1` [Gefitinib, reference compound], the CC50 in data set [5] came to 5 ± 0.04 µM; in data set [1], 51.3 ± 0.17 µM; in [3] (read-out: Cancer cells LC50 C3A, MTT, 48 h, C3A), 5.01 µM; in data set [4], 98.8 ± 0.56 µM.
Turning to `Fc1ccc(-c2nc(Nc3cc(Br)cc4cc(-c5cccc(Cl)c5)oc34)c3cc(Br)ccc3n2)cc1` [Compound 10d, 6-Bromo-N-(5-bromo-2–(3-chlorophenyl)benzofuran-7-yl)-2–(4-fluorophenyl)quinazolin-4-amine], the induction of apoptosis result in the data set with C3A cells is given as “induced apoptosis”. Besides, the caspase-3 activation entry in data set [6] was “induce apoptosis through activation of caspase-3”. In addition, the CC50 in [1] came to 65.1 ± 0.12 µM; in [2] it was 47.7 ± 0.01 µM; in [3] (setting [8]) it was 9 ± 0.01 µM; in data set [4], 22.1 ± 1.1 µM. The IC50 at human EGFR (EGFR-TK) (setting [9]) turned out to be 0.0293 ± 2e-05 µM.
With `Fc1ccc(-c2nc(Nc3cc(Br)cc4cc(-c5ccccc5)oc34)c3cc(Br)ccc3n2)cc1` [Compound 10a, 6-Bromo-N-(5-bromo-2-phenylbenzofuran-7-yl)-2–(4-fluorophenyl)quinazolin-4-amine], the CC50 came to 64.7 ± 0.11 µM in data set [1], 96.3 ± 0.1 µM in [2], 81 ± 0.03 µM in [3] (setting [8]) and 17.6 ± 0.39 µM in data set [4]. Besides, it took 0.1113 ± 0.00042 µM to reach half-maximal inhibition against human EGFR (EGFR-TK) (IC50).
For `Clc1ccc(-c2nc(Nc3cc(Br)cc4cc(-c5ccccc5)oc34)c3cc(Br)ccc3n2)cc1` [Compound 10f, 6-Bromo-N-(5-bromo-2-phenylbenzofuran-7-yl)-2–(4-chlorophenyl)quinazolin-4-amine], the CC50 was found to be 48 ± 0.1 µM in data set [1], 75 ± 0.02 µM in [2], 73.9 ± 0.02 µM in data set [3] (setting [8]) and 15.4 ± 0.45 µM in data set [4].
With `FC(F)(F)Oc1ccc(-c2cc3cc(Br)cc(Nc4nc(-c5ccc(Cl)cc5)nc5ccc(Br)cc45)c3o2)cc1` [Compound 10j, 6-Bromo-N-(5-bromo-2–(4-(trifluoromethoxy)phenyl)benzofuran-7-yl)-2–(4-chlorophenyl) quinazoline-4-amine], the induction of apoptosis entry in the data set with Caco-2 cells is recorded as “induced apoptosis”. In addition, the caspase-3 activation entry in [7] was “induce apoptosis through activation of caspase-3”. Further, the CC50 in data set [1] was 47.4 ± 0.07 µM; in data set [2] it was 18.4 ± 0.07 µM; in data set [3] (setting [8]), over 100 µM; in data set [4], 28.1 ± 0.79 µM. The concentration for half-maximal inhibition (IC50) on human EGFR (EGFR-TK) (setting [9]) is 0.0615 ± 1e-05 µM.
As for `Fc1cccc(-c2cc3cc(Br)cc(Nc4nc(-c5ccc(Cl)cc5)nc5ccc(Br)cc45)c3o2)c1` [Compound 10g, 6-Bromo-N-(5-bromo-2–(3-fluorophenyl)benzofuran-7-yl)-2–(4-chlorophenyl)quinazolin-4-amine], the CC50 in data set [1] stood at 78.5 ± 0.15 µM; in data set [2] it was 94.4 ± 0.02 µM; in data set [3] (setting [8]), 79.1 ± 0.01 µM; in data set [4], 53.5 ± 4.46 µM. Moreover, the IC50 at human EGFR (EGFR-TK) (setting [9]) was 0.1329 ± 0.00055 µM.
In the case of `Fc1ccc(-c2nc(Nc3cc(Br)cc4cc(-c5ccc(OC(F)(F)F)cc5)oc34)c3cc(Br)ccc3n2)cc1` [Compound 10e, 6-Bromo-N-(5-bromo-2–(4-(trifluoromethoxy)phenyl)benzofuran-7-yl)-2–(4-fluorophenyl) quinazolin-4-amine], the CC50 in [1] was 97.6 ± 0.07 µM; in data set [2] it was 65.2 ± 0.1 µM; in data set [3] (setting [8]) it was over 100 µM; in [4] it was 23.4 ± 0.49 µM. For the same compound, at human EGFR (EGFR-TK) (setting [9]), the IC50 worked out at 0.0311 ± 0.00012 µM.
